Source: ChEMBL document CHEMBL1146952, “Synthesis and antibacterial activities of chiral 1,3-oxazinan-2-one derivatives” (2006)
≈ marks a conversion by molar mass, not a printed value. Calls of active or inactive are those of the source. The rule behind the calls is not given here.

What was measured:
Assay type in all cases: functional
Staphylococcus aureus [1] = assay: Antibacterial activity against Staphylococcus aureus ATCC 29213
Enterococcus faecalis = assay: Antibacterial activity against Enterococcus faecalis ATCC 29212
Staphylococcus aureus [2] = assay: Antibacterial activity against Staphylococcus aureus ATCC 43300
Bacillus subtilis = assay: Antibacterial activity against Bacillus subtilis PY79

Row | SMILES | MIC50 (Staphylococcus aureus [1]) | MIC90 (Staphylococcus aureus [1]) [µg/mL] | MIC50 (Enterococcus faecalis) | MIC50 (Staphylococcus aureus [2]) | MIC50 (Bacillus subtilis) | MIC90 (Bacillus subtilis) [µg/mL] | MIC90 (Enterococcus faecalis) [µg/mL] | MIC90 (Staphylococcus aureus [2]) [µg/mL]
1 | CN1CC[C@@H](CN(Cc2ccccc2)Cc2ccc3ccccc3c2)OC1=O | 11.5 µg/mL (≈ 30.7 µM) | 14.9 (≈ 39.8 µM) | 14.9 µg/mL (≈ 39.8 µM) | 13 µg/mL (≈ 34.7 µM) | 12 µg/mL (≈ 32 µM) | 30 (≈ 80.1 µM) |  | 
2 | CCN1CC[C@@H](CN(Cc2ccccc2)Cc2cccnc2)OC1=O | inactive |  | 238 µg/mL (≈ 701 µM) | inactive | inactive |  |  | 
3 | CCN1CC[C@@H](CN(Cc2ccccc2)Cc2cccc(OC)c2)OC1=O | 90 µg/mL (≈ 244 µM) |  | 80.5 µg/mL (≈ 218 µM) | 90 µg/mL (≈ 244 µM) | 95 µg/mL (≈ 258 µM) |  |  | 
4 | CCN1CC[C@@H](CN(Cc2ccccc2)Cc2ccc(F)cc2)OC1=O | 64 µg/mL (≈ 180 µM) |  | 35 µg/mL (≈ 98.2 µM) | 47 µg/mL (≈ 132 µM) | 42.5 µg/mL (≈ 119 µM) |  |  | 
5 | CCN1CC[C@@H](CN(Cc2ccccc2)Cc2ccc(Cl)c(Cl)c2)OC1=O | 5.6 µg/mL (≈ 13.7 µM) | 9.85 (≈ 24.2 µM) | inactive | 6.56 µg/mL (≈ 16.1 µM) | 5 µg/mL (≈ 12.3 µM) | 7.44 (≈ 18.3 µM) |  | 
6 | CCN1CC[C@@H](CN(Cc2ccccc2)Cc2ccc3ccccc3c2)OC1=O | 15 µg/mL (≈ 38.6 µM) |  | 13 µg/mL (≈ 33.5 µM) | inactive | 29 µg/mL (≈ 74.6 µM) |  |  | 
7 | CCN1CC[C@@H](CN(Cc2ccccc2)Cc2cccc(C#N)c2)OC1=O | 238 µg/mL (≈ 655 µM) |  | 45 µg/mL (≈ 124 µM) | inactive | 238 µg/mL (≈ 655 µM) |  |  | 
8 | CN1CC[C@@H](CN(Cc2ccccc2)Cc2ccccc2C#N)OC1=O | 166 µg/mL (≈ 475 µM) |  | 59.5 µg/mL (≈ 170 µM) | 180 µg/mL (≈ 515 µM) | 180 µg/mL (≈ 515 µM) |  |  | 
9 | CCN1CC[C@@H](CN(Cc2ccccc2)Cc2c(F)cccc2F)OC1=O | 47 µg/mL (≈ 126 µM) |  | 59.5 µg/mL (≈ 159 µM) | 70 µg/mL (≈ 187 µM) | 77 µg/mL (≈ 206 µM) |  |  | 
10 | CN1CC[C@@H](CN(Cc2ccccc2)Cc2cccc([N+](=O)[O-])c2)OC1=O | 138 µg/mL (≈ 374 µM) |  | 119 µg/mL (≈ 322 µM) | inactive | 238 µg/mL (≈ 644 µM) |  |  | 
11 | CN1CC[C@@H](CN(Cc2ccccc2)Cc2ccc(F)cc2)OC1=O | 87.1 µg/mL (≈ 254 µM) |  | 120 µg/mL (≈ 350 µM) | 119 µg/mL (≈ 348 µM) | 95 µg/mL (≈ 277 µM) |  |  | 
12 | CCN1CC[C@@H](CN(Cc2ccccc2)Cc2ccc([N+](=O)[O-])cc2)OC1=O | inactive |  | 45 µg/mL (≈ 117 µM) | inactive | inactive |  |  | 
13 | CN1C[C@@H](CN(Cc2ccccc2)Cc2ccc(F)cc2F)OC1=O | 85 µg/mL (≈ 245 µM) |  | inactive | 119 µg/mL (≈ 344 µM) | 90 µg/mL (≈ 260 µM) |  |  | 
14 | CCN1CC[C@@H](CN(Cc2ccccc2)Cc2cc(F)cc(F)c2)OC1=O | 40 µg/mL (≈ 107 µM) |  | 37 µg/mL (≈ 98.8 µM) | 45 µg/mL (≈ 120 µM) | 43 µg/mL (≈ 115 µM) |  |  | 
15 | CCN1CC[C@@H](CN(Cc2ccccc2)Cc2ccccc2C)OC1=O | 22 µg/mL (≈ 62.4 µM) | 29.8 (≈ 84.5 µM) | 8.1 µg/mL (≈ 23 µM) | 22.5 µg/mL (≈ 63.8 µM) | 26 µg/mL (≈ 73.8 µM) | 59.5 (≈ 169 µM) |  | 
16 | CCN1CC[C@@H](CN(Cc2ccccc2)Cc2ccccc2C#N)OC1=O | 130 µg/mL (≈ 358 µM) |  | 33 µg/mL (≈ 90.8 µM) | 180 µg/mL (≈ 495 µM) | 160 µg/mL (≈ 440 µM) |  |  | 

Row | SMILES | MIC50 (Staphylococcus aureus [1]) | MIC90 (Staphylococcus aureus [1]) [µg/mL] | MIC50 (Enterococcus faecalis) | MIC50 (Staphylococcus aureus [2]) | MIC50 (Bacillus subtilis) | MIC90 (Bacillus subtilis) [µg/mL] | MIC90 (Enterococcus faecalis) [µg/mL] | MIC90 (Staphylococcus aureus [2]) [µg/mL]
17 | CCN1CC[C@@H](CN(Cc2ccccc2)Cc2ccc(C#N)cc2)OC1=O | 180 µg/mL (≈ 495 µM) |  | 12 µg/mL (≈ 33 µM) | 59.5 µg/mL (≈ 164 µM) | 10 µg/mL (≈ 27.5 µM) |  |  | 
18 | CCN1CC[C@@H](CN(Cc2ccccc2)Cc2ccccn2)OC1=O | inactive |  | inactive | inactive | inactive |  |  | 
19 | CN1CC[C@@H](CN(Cc2ccccc2)Cc2ccccc2[N+](=O)[O-])OC1=O | 179 µg/mL (≈ 485 µM) |  | 238 µg/mL (≈ 644 µM) | inactive | 238 µg/mL (≈ 644 µM) |  |  | 
20 | CN1CC[C@@H](CN(Cc2ccccc2)Cc2ccc(F)cc2F)OC1=O | 50 µg/mL (≈ 139 µM) |  | 59.5 µg/mL (≈ 165 µM) | 72 µg/mL (≈ 200 µM) | 55 µg/mL (≈ 153 µM) |  |  | 
21 | CN1CC[C@@H](CN(Cc2ccccc2)Cc2cccc(C#N)c2)OC1=O | 180 µg/mL (≈ 515 µM) |  | 7.4 µg/mL (≈ 21.2 µM) | 238 µg/mL (≈ 681 µM) | 180 µg/mL (≈ 515 µM) |  |  | 
22 | CN1C[C@@H](CN(Cc2ccccc2)Cc2ccc(F)cc2)OC1=O | inactive |  | inactive | inactive | inactive |  |  | 
23 | O=C(N[C@H](CO)[C@H](O)c1ccc([N+](=O)[O-])cc1)C(Cl)Cl [CHLORAMPHENICOL] |  | 7.44 (≈ 23 µM) |  |  |  | 2 (≈ 6.19 µM) | 4 (≈ 12.4 µM) | 7.44 (≈ 23 µM)
24 | CN1CC[C@@H](CN(Cc2ccccc2)Cc2ccc(C#N)cc2)OC1=O | 200 µg/mL (≈ 572 µM) |  | 238 µg/mL (≈ 681 µM) | inactive | 238 µg/mL (≈ 681 µM) |  |  | 
25 | CCN1CC[C@@H](CN(Cc2ccccc2)Cc2cccc([N+](=O)[O-])c2)OC1=O | 90 µg/mL (≈ 235 µM) |  | 47 µg/mL (≈ 123 µM) | 22 µg/mL (≈ 57.4 µM) | 108 µg/mL (≈ 282 µM) |  |  | 
26 | CCN1CC[C@@H](CN(Cc2ccccc2)Cc2ccc(F)cc2F)OC1=O | 45 µg/mL (≈ 120 µM) |  | 59.5 µg/mL (≈ 159 µM) | 50.5 µg/mL (≈ 135 µM) | 38 µg/mL (≈ 101 µM) |  |  | 
27 | CN1C[C@@H](CN(Cc2ccccc2)Cc2ccccc2Br)OC1=O | 18 µg/mL (≈ 46.2 µM) |  | 7.4 µg/mL (≈ 19 µM) | 21 µg/mL (≈ 53.9 µM) | 22 µg/mL (≈ 56.5 µM) |  |  | 
28 | CCN1CC[C@@H](CN(Cc2ccccc2)Cc2ccccc2[N+](=O)[O-])OC1=O | 72 µg/mL (≈ 188 µM) |  | 43 µg/mL (≈ 112 µM) | 100 µg/mL (≈ 261 µM) | 100 µg/mL (≈ 261 µM) |  |  | 
29 | CN1C[C@@H](CN(Cc2ccccc2)Cc2ccc(F)c(F)c2)OC1=O | 119 µg/mL (≈ 344 µM) |  | inactive | inactive | 80 µg/mL (≈ 231 µM) |  |  | 
30 | CCN1CC[C@@H](CN(Cc2ccccc2)Cc2cccc3ccccc23)OC1=O | 10 µg/mL (≈ 25.7 µM) | 14.9 (≈ 38.4 µM) | 7.4 µg/mL (≈ 19 µM) | 35 µg/mL (≈ 90.1 µM) | 7.6 µg/mL (≈ 19.6 µM) | 30 (≈ 77.2 µM) |  | 
31 | CN1C[C@@H](CN(Cc2ccccc2)Cc2ccc(Br)cc2)OC1=O | 20 µg/mL (≈ 51.4 µM) |  | inactive | 59.5 µg/mL (≈ 153 µM) | 22 µg/mL (≈ 56.5 µM) |  |  | 
32 | CN1CC[C@@H](CN(Cc2ccccc2)Cc2ccc([N+](=O)[O-])cc2)OC1=O | 81 µg/mL (≈ 219 µM) |  | 119 µg/mL (≈ 322 µM) | inactive | 98 µg/mL (≈ 265 µM) |  |  | 
